The values below come from US20090221532A1 (priority 2005, published 2009).

Series [1] in a line: Population pharmacokinetic model (linear 5-compartment, NONMEM) of venous plasma concentrations. The arrangement: species or system human. The settings on record: population PK model; lean body weight covariate.
Series [2] can be described thus: Pharmacokinetic/pharmacodynamic models (probabilistic and continuous) for level of sedation (MOAA/S score). The arrangement: species or system human. The conditions noted are these: subjects older than 65.
For series [3] the following is noted: Stella reports, cited from earlier work.
The test system of another series is patients. The conditions noted are these: anesthetic induction doses; Bryson et al.; cited from earlier work.

Structures are written as SMILES.

For `CC(C)c1cccc(C(C)C)c1OCOP(=O)([O-])[O-].[Na+].[Na+]` [propofol prodrug, O-phosphonooxymethyl propofol disodium salt], in series [1], the “Increase of central volume of propofol generated from the prodrug” value is 2.5 % per kg of LBW over 55 kg, the “Increase of central volume of the prodrug” value is 1.8 % per kg of LBW over 55 kg and the “Increase of clearance of the prodrug” value is recorded as 1.4 % per kg of LBW over 55 kg. Moreover, in series [2] (continuous model), the “Lowering of effect site concentration at which a given MOAA/S score is attained, versus younger subjects” value was “about 25%”. Moreover, the “Lowering of effect site concentration at which a given MOAA/S score is attained, versus younger subjects” value in series [2] (probabilistic model) was “about 33%”. The “Stability at pH levels suitable for making pharmaceutical formulations” value in series [3] is on record as “good stability”. The “Breakdown in vivo under physiological conditions” value in series [3] (administered intravenously) is “quickly breaks down in vivo”.

As to `CC(C)c1cccc(C(C)C)c1O` [propofol], the “Patients with respiratory consequences, including a reduction in tidal volume and apnea” value in the series on patients is on record as “up to 83%”.
